Experiments:
[1] = test system: male and female CD-1 mice; assay: Tail flick thermal latency test (antinociception); assay type: in vivo; settings: Fig. S1
Experimental: Antinociception was tested using the tail flick thermal latency test. Mice were baselined by gently restraining the animal and lowering the distal portion of the tail into a water bath set to 52 °C or 47 °C where stated, and the latency to flick the tail recorded with a stopwatch, with a 10 s cutoff. Mice were then injected with compounds intraperitoneally (i.p.). Thermal latency was then assessed over a time course of 2 h, or at a single time-point as noted. […] For assays using terpene/WIN55,212-2 co-treatment, WIN55,212-2 was co-administered with terpene in the same solution.

[2] = test system: male and female CD-1 mice; assay: Hypothermia (core temperature, rectal thermometer); assay type: in vivo; settings: 30 min after i.p. 200 mg/kg terpene or 5.6 mg/kg WIN55,212-2, Fig. S2A
Experimental: Changes in core temperature were assessed using a lubricated rectal thermometer placed 1.0 cm into the mouse rectum. Temperature was assessed before treatment and 30 min post-treatment.

[3] = test system: male and female CD-1 mice; assay: Catalepsy ring test; assay type: in vivo; settings: for catalepsy vs baseline: 15 min after i.p. 200 mg/kg terpene or 5.6 mg/kg WIN55,212-2, Fig. S2B
Experimental: Potential induction of catalepsy was assessed using the ring test as described. Mice were baselined, injected with compound, and then assessed with the ring test at 15 min post-injection. Data was represented as the percentage (%) of time in a “cataleptic” immobile state over the 5 min observation period.

WT CHO cells = assay: ERK phosphorylation (Western) in WT CHO cells; assay type: cell-based; settings: for ERK phosphorylation in WT CHO cells: 500 μM terpene or 10 μM WIN55,212-2, 5 min, Fig. 7B
Experimental: WT-CHO cells were obtained from ATCC (#CCL-61). CHO cells stably expressing the human CB1 receptor were obtained from PerkinElmer (#ES-110-C) and utilized for western blots (CB1-CHO-C2) or binding assays (CB1-CHO-C3). HitHunter (CB1-CHO-cAMP) and PathHunter (CB-CHO-βarr2) assays were performed on respective CB1-CHO lines, and were a kind gift from Dr. Robert Laprairie[44]. CHO cells stably expressing cloned CB2 (CB2-CHO) were produced by electroporation with the human CB2 N-3xHA tag cDNA (GeneCopoeia). A stable expressing population was selected for with 500 μg/mL G418. CHO cells stably expressing the human mu opioid receptor were obtained from PerkinElmer (#ES-542-C). All cells were grown on 10 cm dishes in DMEM/F-12 50/50 mix w/ L-glutamine and 15 mM HEPES (Corning) containing 10% heat-inactivated fetal bovine serum, 100 units/mL penicillin, 100 units/mL streptomycin, and 400 μg/mL G418 (CB1-CHO-C2, CB1-CHO-C3, CB2-CHO, MOR-CHO); 800 μg/mL G418 (CB1-CHO-cAMP); 800 μg/mL G418 and 300 μg/mL hygromycin B (CB1-CHO-βarr2). WT CHO were grown as stated above without selection antibiotic. Cells were incubated in a humidified incubator at 37 °C with 5% CO2 and were sub-cultured every 2–3 days.
Cells were plated in 6-well plates 24 h prior to the start of the experiments. Cells were serum starved for 1 h then treated for 5 min with compound. In antagonist experiments, cells were pretreated for 5 min before agonist treatment for 5 min. Media was then aspirated, cells were placed on ice, washed with ice-cold PBS once, and lysis buffer (20 mM Tris–HCl, pH 7.4, 150 mM NaCl, 2 mM EDTA, 0.1% SDS, 1% Nonidet P-40, 0.25% deoxycholate, 1 mM sodium orthovanadate, 1 mM PMSF, 1 mM sodium fluoride, and a protease inhibitor cocktail (EMD Millipore)), was added. Cells were scraped and collected. Lysates were vortexed then centrifuged at 13 k rpm at 4 °C for 10 min. Lysates were then processed for Western blots or stored at − 80 °C.
Cell lysate protein was quantified with a modified BCA protein assay using manufacturers protocol (Bio-Rad). Samples (20–30 μg) were ran on precast gels (10% Bis–Tris, Bolt brand, from ThermoFisher). Gels were wet-transferred to nitrocellulose membranes at 30 V for at least 60 min at 4 °C. Blots were blocked with 5% non-fat dry milk in TBS for 30 min, washed 3 × for 5 min with TBS + 0.1% Tween-20 (TBST), and incubated with primary antibody overnight at 4 °C. Primary antibody: pERK and tERK (Cell Signaling) at 1:1000 dilution in 5% BSA in TBST. Blots were then washed 3 × with TBST then incubated with secondary antibodies for 90 min at room temperature. Secondary antibodies: Goat anti-Rabbit 800 W and Goat anti-Mouse 680 diluted at 1:10,000 and 1:20,000 (Licor), respectively, in 5% non-fat milk in TBST. Blots were washed 3X with TBST and 1 × with TBS, then imaged on a Licor Odyssey Fc or Azure Sapphire. Bands were analyzed using Image-J and reported as pERK/tERK normalized to the standard, or simply as pERK/tERK.

human mu opioid receptor = target: T1, human mu opioid receptor (Homo sapiens, UniProt P35372); assay type: cell-based; settings: 500 μM terpene or 10 μM morphine, 5 min, Fig. S13A
T1 construct: host or cells: CHO (MOR-CHO)
Experimental: Cells were plated in 6-well plates 24 h prior to the start of the experiments. Cells were serum starved for 1 h then treated for 5 min with compound. In antagonist experiments, cells were pretreated for 5 min before agonist treatment for 5 min. […] Cells were scraped and collected. Lysates were vortexed then centrifuged at 13 k rpm at 4 °C for 10 min. Lysates were then processed for Western blots or stored at − 80 °C.
CHO cells were serum starved for 1 hr, then treated with Vehicle, 10 μM morphine, or 500
μM terpene for 5 min. ERK was quantitated and reported as above. Data expressed as the
vs. Vehicle group by 1 Way ANOVA with Dunnett’s post hoc test. B) MOR-CHO cells
serum starved for 1 hr, then pre-treated with Vehicle or 10 μM naloxone for 10 min, then
treated with Vehicle, 10 μM morphine, or 500 μM terpene for 5 min. ERK quantitated,
reported, and normalized as in A (n=3 independent experiments). *, **** = p < 0.05,
0.0001 vs. terpene-alone group for each set by 1 Way ANOVA with Sidak’s post hoc test
(set up as pairwise comparisons between terpene and terpene + naloxone for each set). For
both, representative blots are shown below each graph.

CB1 [4] = target: T2, CB1 (Homo sapiens, UniProt P21554); assay: biochemical; assay type: binding; settings: CB1-CHO membranes; for competition for the orthosteric binding site against CP55,940: Fig. 8A
[5] = test system: male and female CD-1 mice; assay: Open field test (hypolocomotion); settings: for distance traveled and mobile time, experiment without baseline recording: vs Vehicle, Fig. S3A,B
Experimental: All experiments were performed on male and female CD-1 (a.k.a. ICR) mice obtained from Charles River in age-matched cohorts of 5–6 weeks of age. […] The animals were maintained in an AAALAC-accredited vivarium at the University of Arizona in temperature and humidity-controlled rooms on a 12-h light/dark cycle. Standard chow and water were available ad libitum. […] Mice were randomized to treatment group by randomization of mice to cages upon arrival, and block random assignment of cages to treatment group. The experimenter was blinded to treatment group by the delivery of coded drug vials. The groups were not decoded until all data had been acquired.
The open field test was used to determine potential hypolocomotive properties induced by terpene and cannabinoid treatment. The open field box was a white box with an open top and black floor. The tracking area was 30 cm × 28 cm. Mice were baselined by placing the mouse in the center of the box and recording from a video camera ~ 1.5 m above for a period of 5 min. Mice were then injected with compound and placed back in the open field box 10–15 min post-injection. In follow-up experiments, mice were not baselined, injected with compound, and placed in the open field box from 10 to 15 min. The total distance traveled and mobile time of mice were analyzed using AnyMaze software.

CB1 [6] = target: T2, CB1; assay type: cell-based; design: expressed in transfected cells; host or cells: CHO (CB1-CHO-βarr2 / CB1-CHO-DX), gift from Dr. Robert Laprairie; settings: Fig. S14C
CB1 [7] = target: T2, CB1; assay type: cell-based; settings: varying concentrations, 5 min, Fig. 6
Experimental: WT-CHO cells were obtained from ATCC (#CCL-61). […] CHO cells stably expressing cloned CB2 (CB2-CHO) were produced by electroporation with the human CB2 N-3xHA tag cDNA (GeneCopoeia). A stable expressing population was selected for with 500 μg/mL G418. […] All cells were grown on 10 cm dishes in DMEM/F-12 50/50 mix w/ L-glutamine and 15 mM HEPES (Corning) containing 10% heat-inactivated fetal bovine serum, 100 units/mL penicillin, 100 units/mL streptomycin, and 400 μg/mL G418 (CB1-CHO-C2, CB1-CHO-C3, CB2-CHO, MOR-CHO); 800 μg/mL G418 (CB1-CHO-cAMP); 800 μg/mL G418 and 300 μg/mL hygromycin B (CB1-CHO-βarr2). WT CHO were grown as stated above without selection antibiotic. Cells were incubated in a humidified incubator at 37 °C with 5% CO2 and were sub-cultured every 2–3 days.
Cells were plated in 6-well plates 24 h prior to the start of the experiments. Cells were serum starved for 1 h then treated for 5 min with compound. In antagonist experiments, cells were pretreated for 5 min before agonist treatment for 5 min. […] Cells were scraped and collected. Lysates were vortexed then centrifuged at 13 k rpm at 4 °C for 10 min. […]
Cell lysate protein was quantified with a modified BCA protein assay using manufacturers protocol (Bio-Rad). […] Bands were analyzed using Image-J and reported as pERK/tERK normalized to the standard, or simply as pERK/tERK.

[8] = test system: male and female CD-1 mice; assay: Cannabinoid tetrad of behaviors (antinociception, hypolocomotion, catalepsy, hypothermia); assay type: in vivo; settings: 200 mg/kg terpene i.p. (β-Caryophyllene control)
Description: Our first set of experiments sought to determine whether selected terpenes/terpenoids (α-Humulene, β-Pinene, Linalool [terpenoid], Geraniol [terpenoid], and β-Caryophyllene as a putative cannabinoid receptor type 2 [CB2] agonist control) had activity in the cannabinoid tetrad of behaviors mediated by the CB1 receptor: antinociception, hypolocomotion, catalepsy, and hypothermia. These terpenes were selected based on their quantities in Cannabis sativa, with α-Humulene, β-Pinene, Linalool, and β-Caryophyllene all being found in higher quantities and Geraniol in lower to underdetermined quantities. Although it is not clear if geraniol is present in higher quantities, we nonetheless chose this ligand due to its reported anti-nociceptive activity (e.g.[22]). Terpenes were administered at several doses (50–200 mg/kg) i.p. and assessed in the tail flick assay in male and female CD-1 mice. […]
Antinociception was tested using the tail flick thermal latency test. Mice were baselined by gently restraining the animal and lowering the distal portion of the tail into a water bath set to 52 °C or 47 °C where stated, and the latency to flick the tail recorded with a stopwatch, with a 10 s cutoff. […] Thermal latency was then assessed over a time course of 2 h, or at a single time-point as noted. […]
Potential induction of catalepsy was assessed using the ring test as described. […]

[9] = 200 mg/kg terpene or 5.6 mg/kg WIN55,212-2 i.p.

T2 sequence (P21554 whole entry): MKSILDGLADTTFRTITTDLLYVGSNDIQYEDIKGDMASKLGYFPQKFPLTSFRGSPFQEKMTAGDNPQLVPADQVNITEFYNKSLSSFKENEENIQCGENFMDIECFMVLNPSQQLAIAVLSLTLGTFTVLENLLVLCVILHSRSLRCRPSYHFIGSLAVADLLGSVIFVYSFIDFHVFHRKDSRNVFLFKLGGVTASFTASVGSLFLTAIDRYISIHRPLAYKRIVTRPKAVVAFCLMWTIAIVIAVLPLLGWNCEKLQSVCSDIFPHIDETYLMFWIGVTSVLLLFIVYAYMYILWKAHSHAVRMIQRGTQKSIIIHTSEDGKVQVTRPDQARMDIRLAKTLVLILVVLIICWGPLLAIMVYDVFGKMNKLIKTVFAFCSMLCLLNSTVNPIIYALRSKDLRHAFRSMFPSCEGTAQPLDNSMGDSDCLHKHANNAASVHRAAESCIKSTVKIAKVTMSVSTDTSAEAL
T1 sequence (P35372 whole entry): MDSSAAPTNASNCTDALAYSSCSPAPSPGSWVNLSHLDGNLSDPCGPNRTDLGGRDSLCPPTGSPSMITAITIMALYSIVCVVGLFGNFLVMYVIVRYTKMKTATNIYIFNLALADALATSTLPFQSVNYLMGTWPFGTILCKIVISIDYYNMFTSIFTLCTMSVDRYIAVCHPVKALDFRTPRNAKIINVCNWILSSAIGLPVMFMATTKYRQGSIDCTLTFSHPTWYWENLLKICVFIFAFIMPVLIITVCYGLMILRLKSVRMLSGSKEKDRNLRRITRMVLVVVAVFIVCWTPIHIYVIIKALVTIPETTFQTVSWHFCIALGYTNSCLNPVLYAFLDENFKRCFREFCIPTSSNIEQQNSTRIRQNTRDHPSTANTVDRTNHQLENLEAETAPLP

CC(C)=CCC/C(C)=C/CO [Geraniol]
efficacy in the tail flick assay ([1]; terpene 50–200 mg/kg i.p., dose-dependent): 40–50% | hypothermia vs baseline [2]: induced significant hypothermia | effect of istradefyllene pretreatment on catalepsy response ([3]; 10 mg/kg istradefyllene, 200 mg/kg terpene, Fig. 4): partially blocked | effect of rimonabant pretreatment on catalepsy response ([3]; 10 mg/kg rimonabant, 200 mg/kg terpene, Fig. 4): no impact | catalepsy vs baseline [3]: significant increases in cataleptic behavior | ERK phosphorylation in WT CHO cells (WT CHO cells): did not cause ERK phosphorylation | ERK stimulation in MOR-CHO cells (human mu opioid receptor): no response | competition for the orthosteric binding site against CP55,940 (CB1 [4]): full competition | IC50 (CB1 [4]; mean (95% CI), n = 5, Fig. 8A, read-out: IC50, competition binding against 3H-CP55,940): 44.2 µM | effect of istradefyllene pretreatment on mobile time ([5]; 10 mg/kg istradefyllene, 200 mg/kg terpene, Fig. 5): significant reversal | effect of istradefyllene pretreatment on distance traveled ([5]; 10 mg/kg istradefyllene, 200 mg/kg terpene, Fig. S7): istradefyllene reversal | locomotor activity vs baseline ([5]; 200 mg/kg terpene or 5.6 mg/kg WIN55,212-2 i.p., compared to baseline values, Fig. S2C,D, confounded by habituation): significant reductions in locomotor activity | distance traveled and mobile time, experiment without baseline recording [5, 9]: reductions in distance traveled and mobile time | effect of a full dose-range of Geraniol on WIN55,212-2 βarrestin2 recruitment (CB1 [6]): dose-dependent reductions in WIN55,212-2 recruitment

C=C1CC/C=C(\C)CC[C@@H]2[C@@H]1CC2(C)C [β-Caryophyllene, reference compound]
tail flick antinociception (efficacy in words) ([1]; terpenes 50–200 mg/kg i.p. (β-Caryophyllene 100 mg/kg), WIN55,212-2 up to 10 mg/kg, over 2 h): low efficacy | hypothermia vs baseline [2]: did not induce | catalepsy vs baseline [3]: did not induce | ERK activation in CB1-CHO cells (CB1 [7]): activated downstream ERK signaling | rimonabant sensitivity of ERK activation in WT CHO cells (WT CHO cells; 500 μM terpene after 10 μM rimonabant, Fig. 7C): rimonabant-insensitive | ERK phosphorylation in WT CHO cells (WT CHO cells): activated ERK | ERK stimulation in MOR-CHO cells (human mu opioid receptor): produced ERK stimulation | competition for the orthosteric binding site against CP55,940 (CB1 [4]): some competition and semi-biphasic properties | number of classic cannabinoid tetrad behaviors induced (out of 4) [8]: did not | distance traveled and mobile time, experiment without baseline recording [5, 9]: did not result in significant reductions
